This is an account of results in patent US12410163B2, “Compounds as GLP-IR agonists” (Terns Pharmaceuticals, Inc., priority 2022, dated 2025).

Some results are limits rather than exact numbers.

This data set relates to human hepatocytes. The experiment in a line: Metabolic stability in hepatocytes. Type of data set: in vitro ADME. The following applies: 1 μM, 1×10^6 cells/mL, 0-240 min. Summed up: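 Cryopreserved human hepatocytes at 1×10^6 cells/mL in DMEM were exposed to 1 μM compound (0.1% DMSO) for 0–240 min at 37 °C, 5% CO2. Parent loss quantified by LC-MS/MS; t1/2 = 0.693/k and CLint = k/cell density from semi-log % remaining versus time.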

`N#Cc1ccc(COc2cccc(N3CCN(Cc4nc5ccc(C(=O)O)cc5n4Cc4cncs4)[C@H]4C[C@H]43)n2)c(F)c1` (single isomer, unassigned) [Compound 2, 2-((5-(6-((4-Cyano-2-fluorobenzyl)oxy)pyridin-2-yl)-2,5-diazabicyclo[4.1.0]heptan-2-yl)methyl)-1-(thiazol-5-ylmethyl)-1H-benzo[d]imidazole-6-carboxylic Acid] came in with a hHep t1/2 greater than 8 h.
